Target: T1, D-3-phosphoglycerate dehydrogenase (Homo sapiens) (UniProt O43175)
T1 sequence (whole entry): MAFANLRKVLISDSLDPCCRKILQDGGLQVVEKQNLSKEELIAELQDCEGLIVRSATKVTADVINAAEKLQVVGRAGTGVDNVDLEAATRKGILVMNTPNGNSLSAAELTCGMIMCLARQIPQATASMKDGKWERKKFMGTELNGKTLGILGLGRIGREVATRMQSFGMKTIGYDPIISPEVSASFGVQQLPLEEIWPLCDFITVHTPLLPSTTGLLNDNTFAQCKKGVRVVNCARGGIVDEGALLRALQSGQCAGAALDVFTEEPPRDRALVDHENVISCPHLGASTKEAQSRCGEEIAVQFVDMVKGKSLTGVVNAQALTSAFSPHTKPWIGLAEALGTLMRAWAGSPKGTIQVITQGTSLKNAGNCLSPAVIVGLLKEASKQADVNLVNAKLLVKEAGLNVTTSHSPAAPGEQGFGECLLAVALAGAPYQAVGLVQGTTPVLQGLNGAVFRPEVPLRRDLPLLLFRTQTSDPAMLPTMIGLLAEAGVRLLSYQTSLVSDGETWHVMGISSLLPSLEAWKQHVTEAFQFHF
Assay: Inhibition of N-terminal His6-tagged human liver PHGDH expressed in Escherichia coli Rosetta (DE3)pLysS at 57 uM using 3-phosphoglycerate as substrate after 20 mins in presence of NAD+ by resazurin fluorescence based PSAT1/diaphorase/PSPH coupled enzyme assay

First: Cc1cc(C)nc(NC(=S)N2CCN(c3ccncc3)CC2)c1
Second: COc1ccccc1CN1CCN(C(=S)Nc2cc(C)cc(C)n2)CC1
The Imax of the first is higher: 33% for the first, 21% for the second.

In the case of `Cc1ccnc(C(=S)N2CCN(c3cccc(C(F)(F)F)c3)CC2)c1`, the Imax is reported as 9%.

First: Cc1cc(C)nc(NC(=S)N2CCN(Cc3ccccc3C(F)(F)F)CC2)c1
Second: Cc1cc(C)nc(NC(=S)N2CCN(Cc3ccccc3Cl)CC2)c1
The inhibition of the first is lower: 92% for the first, 106% for the second.

Compared with `Cc1cc(C)nc(NC(=S)N2CCCC(NCc3ccc(C(F)(F)F)cc3)C2)c1` (stereo unspecified), `Cc1cc(C)nc(NC(=S)N2CCCC(Nc3ccc(C(F)(F)F)cc3)C2)c1` (stereo unspecified) is lower in inhibition: 89% for the first, 85% for the second.

Going from `Cc1cc(C)nc(NC(=S)N2CCN(Cc3ccc(C(F)(F)F)cc3)C(CO)C2)c1` (stereo unspecified) to `Cc1cc(C)nc(NC(=S)N2CCN(Cc3ccc(C(F)(F)F)cc3)[C@@H](C)C2)c1`, the inhibition falls from 89% to 86%.

First: Cc1cc(C)nc(NC(=S)N2CCN(c3ccc(C(F)(F)F)cn3)CC2)c1
Second: Cc1cc(C)nc(NC(=S)N2CCN(c3cccc(C(F)(F)F)n3)CC2)c1
The inhibition of the first is lower: 96% for the first, 100% for the second.

First: Cc1cc(C)nc(NC(=S)N2CCC(NC(=O)c3cccc(C(F)(F)F)c3)CC2)c1
Second: Cc1cc(C)nc(NC(=S)N2CCC(NC(=O)c3ccc(C(F)(F)F)cc3)CC2)c1
The inhibition of the first is higher: 94% for the first, 90% for the second.

Going from `COc1cccc(CN2CCN(C(=S)Nc3cc(C)cc(C)n3)CC2)c1` to `Cc1cccc(CN2CCN(C(=S)Nc3cc(C)cc(C)n3)CC2)c1`, the inhibition falls from 94% to 92%.

First: Cc1cc(C)nc(NC(=S)NCCN(C)Cc2ccc(C(F)(F)F)cc2)c1
Second: Cc1cc(C)nc(NC(=S)N(C)CCN(C)Cc2ccc(C(F)(F)F)cc2)c1
The inhibition of the first is lower: 66% for the first, 84% for the second.

First: Cc1cc(C)nc(NC(=S)N2CCN(Cc3cccc(C(F)(F)F)c3)CC2)c1
Second: Cc1cc(C)nc(NC(=S)N2CCCN(Cc3ccc(C(F)(F)F)cc3)CC2)c1
The inhibition of the first is higher: 102% for the first, 82% for the second.

Going from `Cc1cc(C)nc(NC(=S)N2CCN(C(=O)c3ccc(C(F)(F)F)cc3)CC2)c1` to `Cc1cc(C)nc(NC(=S)N2CCN(C(=O)c3cccc(C(F)(F)F)c3)CC2)c1`, the inhibition rises from 85% to 101%.

Going from `Cc1cc(C)nc(NC(=S)N2CCN(C(C)c3ccc(C(F)(F)F)cc3)CC2)c1` (stereo unspecified) to `Cc1cc(C)nc(NC(=S)N2CCC(Nc3ccc(C(F)(F)F)cc3)CC2)c1`, the inhibition rises from 90% to 97%.

Compared with `Cc1ccc(CN2CCN(C(=S)Nc3cc(C)cc(C)n3)CC2)cc1`, `Cc1cc(C)nc(NC(=S)N2CCN(Cc3ccc(Cl)cc3)CC2)c1` is higher in inhibition: 93% for the first, 97% for the second.

Going from `Cc1cc(C)nc(NC(=S)N2CCN(Cc3ccccc3)CC2)c1` to `COc1ccc(CN2CCN(C(=S)Nc3cc(C)cc(C)n3)CC2)cc1`, the inhibition rises from 78% to 87%.

First: COc1ccccc1N1CCN(C(=S)Nc2cc(C)cc(C)n2)CC1
Second: COc1ccc(N2CCN(C(=S)Nc3cc(C)cc(C)n3)CC2)cc1
The inhibition of the first is higher: 109% for the first, 99% for the second.

Compared with `Cc1cc(C)nc(NC(=S)N2CCN(Cc3ccc(OC(F)(F)F)cc3)CC2)c1`, `Cc1cc(C)nc(NC(=S)N2CC3CN(Cc4ccc(C(F)(F)F)cc4)CC3C2)c1` (stereo unspecified) is lower in inhibition: 96% for the first, 93% for the second.

Going from `FC(F)(F)c1cccc(N2CCN(C(=S)Nc3ccncc3)CC2)c1` to `FC(F)(F)c1cccc(N2CCN(C(=S)Nc3cccnc3)CC2)c1`, the inhibition rises from 55% to 67%.

Going from `Cc1cc(NC(=S)N2CCN(c3cccc(C(F)(F)F)c3)CC2)nc2ccccc12` to `FC(F)(F)c1cccc(N2CCN(C(=S)Nc3ccccn3)CC2)c1`, the inhibition falls from 119% to 93%.

With `Cc1cc(C)nc(NC(=S)N2CCN(Cc3ccc(C(F)(F)F)cc3)C(C(=O)O)C2)c1` (stereo unspecified) the inhibition was 93%.

Tested on: not listed separately
Assay: Half life in rat liver microsomes at 1 uM at 37 degC in presence of NADPH regeneration system incubated for 15 mins by LC-MS/MS analysis
Type: ADME, microsome

With `FC(F)(F)c1cccc(N2CCN(C(=S)Nc3ccccn3)CC2)c1` the t1/2 was 16 min.

Tested on: not listed separately
Assay: Aqueous solubility of the compound
Type: physicochemical

For `Cc1cc(C)nc(NC(=S)N2CCN(c3ccncc3)CC2)c1`, the solubility was greater than 48 µM.

Target: T2, D-3-phosphoglycerate dehydrogenase (Homo sapiens, UniProt O43175)
T2 sequence (O43175 whole entry): T1 sequence (whole entry)
Assay: Inhibition of PHGDH (unknown origin)

`CCNC(=S)N/N=C/c1ccc(-c2ccc(C(=O)O)c(Cl)c2)o1` showed an IC50 of 35.7 µM.

Target: T2, D-3-phosphoglycerate dehydrogenase

First: Cc1cc(C)nc(NC(=S)N2CCN(Cc3ccccc3C(F)(F)F)CC2)c1
Second: Cc1cc(C)nc(NC(=S)N2CCN(Cc3ccccc3Cl)CC2)c1
The IC50 of the first is 3.2-fold lower: 6.3 µM for the first, 20 µM for the second. The first is the more potent here.

Going from `Cc1cc(C)nc(NC(=S)N2CCCC(NCc3ccc(C(F)(F)F)cc3)C2)c1` (stereo unspecified) to `Cc1cc(C)nc(NC(=S)N2CCCC(Nc3ccc(C(F)(F)F)cc3)C2)c1` (stereo unspecified), the IC50 falls from 12 µM to 5.7 µM (2.1-fold).

First: Cc1cc(C)nc(NC(=S)N2CCN(Cc3ccc(C(F)(F)F)cc3)C(CO)C2)c1 (stereo unspecified)
Second: Cc1cc(C)nc(NC(=S)N2CCN(Cc3ccc(C(F)(F)F)cc3)[C@@H](C)C2)c1
The IC50 of the first is 1.7-fold lower: 5.8 µM for the first, 9.9 µM for the second. The first is the more potent here.

`Cc1cc(C)nc(NC(=S)N2CCC(NC(=O)c3cccc(C(F)(F)F)c3)CC2)c1` and `Cc1cc(C)nc(NC(=S)N2CCC(NC(=O)c3ccc(C(F)(F)F)cc3)CC2)c1` are within 1.5-fold of each other in IC50: 11 µM for the first, 10 µM for the second.

First: COc1cccc(CN2CCN(C(=S)Nc3cc(C)cc(C)n3)CC2)c1
Second: Cc1cccc(CN2CCN(C(=S)Nc3cc(C)cc(C)n3)CC2)c1
The IC50 of the first is 1.5-fold higher: 30 µM for the first, 20 µM for the second. The second is the more potent here.

Going from `Cc1cc(C)nc(NC(=S)NCCN(C)Cc2ccc(C(F)(F)F)cc2)c1` to `Cc1cc(C)nc(NC(=S)N(C)CCN(C)Cc2ccc(C(F)(F)F)cc2)c1`, the IC50 falls from 21 µM to 7.3 µM (2.9-fold).

`Cc1cc(C)nc(NC(=S)N2CCN(Cc3cccc(C(F)(F)F)c3)CC2)c1` and `Cc1cc(C)nc(NC(=S)N2CCCN(Cc3ccc(C(F)(F)F)cc3)CC2)c1` are within 1.5-fold of each other in IC50: 5.3 µM for the first, 7.3 µM for the second.

`Cc1cc(C)nc(NC(=S)N2CCN(C(=O)c3ccc(C(F)(F)F)cc3)CC2)c1` and `Cc1cc(C)nc(NC(=S)N2CCN(C(=O)c3cccc(C(F)(F)F)c3)CC2)c1` are within 1.5-fold of each other in IC50: 19 µM for the first, 22 µM for the second.

`Cc1cc(C)nc(NC(=S)N2CCN(C(C)c3ccc(C(F)(F)F)cc3)CC2)c1` (stereo unspecified) and `Cc1cc(C)nc(NC(=S)N2CCC(Nc3ccc(C(F)(F)F)cc3)CC2)c1` are within 1.5-fold of each other in IC50: 8 µM for the first, 7.7 µM for the second.

`Cc1ccc(CN2CCN(C(=S)Nc3cc(C)cc(C)n3)CC2)cc1` and `Cc1cc(C)nc(NC(=S)N2CCN(Cc3ccc(Cl)cc3)CC2)c1` are within 1.5-fold of each other in IC50: 17 µM for the first, 15 µM for the second.

Going from `Cc1cc(C)nc(NC(=S)N2CCN(Cc3ccccc3)CC2)c1` to `COc1ccc(CN2CCN(C(=S)Nc3cc(C)cc(C)n3)CC2)cc1`, the IC50 falls from 40 µM to 26 µM (1.5-fold).

First: COc1ccccc1N1CCN(C(=S)Nc2cc(C)cc(C)n2)CC1
Second: COc1ccc(N2CCN(C(=S)Nc3cc(C)cc(C)n3)CC2)cc1
The IC50 of the first is 1.5-fold higher: 24 µM for the first, 16 µM for the second.

`Cc1cc(C)nc(NC(=S)N2CCN(Cc3ccc(OC(F)(F)F)cc3)CC2)c1` and `Cc1cc(C)nc(NC(=S)N2CC3CN(Cc4ccc(C(F)(F)F)cc4)CC3C2)c1` (stereo unspecified) are within 1.5-fold of each other in IC50: 11 µM for the first, 16 µM for the second.

First: FC(F)(F)c1cccc(N2CCN(C(=S)Nc3ccncc3)CC2)c1
Second: FC(F)(F)c1cccc(N2CCN(C(=S)Nc3cccnc3)CC2)c1
The IC50 of the first is 1.6-fold higher: 14 µM for the first, 8.9 µM for the second.

Compared with `Cc1cc(NC(=S)N2CCN(c3cccc(C(F)(F)F)c3)CC2)nc2ccccc12`, `FC(F)(F)c1cccc(N2CCN(C(=S)Nc3ccccn3)CC2)c1` is 3.1-fold lower in IC50: 21 µM for the first, 6.8 µM for the second. The second is the more potent here.

First: Cc1cc(C)nc(NC(=S)N2CCN(c3cccc(C(F)(F)F)n3)CC2)c1
Second: Cc1cc(C)nc(NC(=S)N2CCN(Cc3ccc(C(F)(F)F)cc3)C(C(=O)O)C2)c1 (stereo unspecified)
The IC50 of the first is 3-fold lower: 11 µM for the first, 33 µM for the second.
